Measured values as given in ChEMBL document CHEMBL1151212, “Ananosic acids B and C, two new 18(13-->12)-abeo-lanostane triterpenoids from Kadsura ananosma” (J Nat Prod, 2004).
≈ marks a conversion by molar mass, not a printed value.

Columns and labels:
CCRF-CEM = assay: Cytotoxicity against human CCRF-CEM cells assessed as cell viability; type: functional, cell-based
HeLa = assay: Cytotoxicity against human HeLa cells assessed as cell viability; type: functional, cell-based

SMILES | IC50 (CCRF-CEM) | IC50 (HeLa)
C/C(=C/CC[C@@H](C)C1=C2C(C)C[C@H]3C(=CC[C@H]4C(C)(C)[C@H](O)CC[C@]34C)[C@]2(C)CC1)C(=O)O (stereo partly specified) [ANANOSIC ACID A] | 45.4 mg/L (≈ 99.8 µM) | 0.46 mg/L (≈ 1.01 µM)
C=C1C[C@H]2C(=CC[C@H]3C(C)(C)[C@H](OC(C)=O)CC[C@]23C)[C@]2(C)CC[C@H]([C@H](C)CC/C=C(/C)C(=O)O)C12 (stereo partly specified) [ANANOSIC ACID B] | 49.6 mg/L (≈ 99.9 µM) | 0.54 mg/L (≈ 1.09 µM)
C=C1C[C@H]2C(=CC[C@H]3C(C)(C)C(=O)CC[C@]23C)[C@]2(C)CC[C@H]([C@H](C)CC/C=C(/C)C(=O)O)C12 (stereo partly specified) [ANANOSIC ACID C] | 45.2 mg/L (≈ 99.9 µM) | 0.48 mg/L (≈ 1.06 µM)
